Measured values from EP0909764A1, “11 Beta-Benzaldoxim-9 Alpha, 10 Alpha-epoxy-estr-4-en-derivatives, a process for their production and pharmaceutical compositions containing them” (JENAPHARM GmbH, priority 1997, dated 1999).

Legend:
Progesteronrezeptor = molecular target: T1, Progesteronrezeptor (Oryctolagus cuniculus, UniProt P06186); test: Receptor binding affinity, competitive binding with 3H-ORG 2058 in uterus cytosol; parameters: species or system Kaninchen; conditions: uterus cytosol of estradiol-primed rabbit; tracer 3H-ORG 2058 5nM; 18 h at 0-4°C; quotient of IC50 values x 100 %
T1 construct: Rezeptoren im Cytosol aus tierischen Target-Organen; from tissue; host or cells: uterus cytosol of estradiol-primed rabbit
T1 sequence (P06186 1-930): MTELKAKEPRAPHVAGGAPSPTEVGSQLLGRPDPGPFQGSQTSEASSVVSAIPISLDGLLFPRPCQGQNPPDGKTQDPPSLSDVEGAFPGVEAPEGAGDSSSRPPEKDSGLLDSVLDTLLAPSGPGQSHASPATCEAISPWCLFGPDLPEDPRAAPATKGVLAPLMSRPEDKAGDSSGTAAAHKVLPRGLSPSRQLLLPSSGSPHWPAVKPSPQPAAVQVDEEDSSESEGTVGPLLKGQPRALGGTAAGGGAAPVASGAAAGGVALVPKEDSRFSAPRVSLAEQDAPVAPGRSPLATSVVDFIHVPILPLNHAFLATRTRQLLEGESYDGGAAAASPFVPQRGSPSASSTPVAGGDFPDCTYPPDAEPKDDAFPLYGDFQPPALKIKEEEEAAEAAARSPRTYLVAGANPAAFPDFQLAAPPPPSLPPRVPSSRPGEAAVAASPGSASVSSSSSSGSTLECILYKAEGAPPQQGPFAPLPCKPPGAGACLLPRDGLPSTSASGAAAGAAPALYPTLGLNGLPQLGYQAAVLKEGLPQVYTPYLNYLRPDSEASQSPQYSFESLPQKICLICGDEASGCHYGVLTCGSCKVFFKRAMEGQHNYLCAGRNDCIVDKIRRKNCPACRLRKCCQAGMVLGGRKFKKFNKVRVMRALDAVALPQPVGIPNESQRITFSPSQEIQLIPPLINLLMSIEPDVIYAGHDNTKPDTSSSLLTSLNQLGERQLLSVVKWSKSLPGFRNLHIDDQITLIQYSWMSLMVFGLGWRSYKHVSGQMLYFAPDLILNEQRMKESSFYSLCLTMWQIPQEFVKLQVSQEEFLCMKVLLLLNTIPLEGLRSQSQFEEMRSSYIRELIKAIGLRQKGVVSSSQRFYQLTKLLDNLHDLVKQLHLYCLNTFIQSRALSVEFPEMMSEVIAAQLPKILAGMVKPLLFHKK
Protocol: (§1) Die Rezeptor-Bindungsaffinität wurde bestimmt durch competitive Bindung eines spezifisch bindenden ^3H-markierten Hormons (Tracer) und der zu testenden Verbindung an Rezeptoren im Cytosol aus tierischen Target-Organen. Dabei wurden Rezeptorsättigung und Reaktionsgleichgewicht angestrebt. Folgende Inkubationsbe-dingungen wurden gewählt: • Progesteron-Rezeptor: Uterus-Cytosol des Estradiol-geprimten Kannchens, aufbe-wahrt bei -30° C. Puffer für Homogenisation und Inkubation: TED-Puffer 20 mM Tris/HCl, pH= 7,4; 1mM Ethylendiamintetraacetat, 2 mM Dithiothreitol) mit 250mM Saccharose. Tracer: ^3H-ORG 2058, 5nM; Referenzsubstanz: Progesteron. • Glucocorticoid-Rezeptor: Thymus-Cytosol der adrenalectomierten Ratte. Thymi aufbewahrt bei -30 °C. Puffer: TED. Tracer: ^3H-Dexamethason, 20nM. Referenzsub-stanz: Dexamethason. • Estrogen-Rezeptor: Uterus-Cytosol des unreifen Kaninchens, aufbewahrt bei -30 °C. Puffer:TED mit 250 mM Saccharose. Tracer: ^3H-Estradiol, 3nM. Referenzsubstanz: 17β-Estradiol.
(§2) Nach einer Inkubation von Rezeptorfraktion, Tracer und Competitor für 18 h bei 0-4°C erfolgte die Trennung von gebundenem und freiem Steroid durch Einmischen von Aktivkohle/Dextran (1 % / 0,1 %), Abzentrifugieren und Messung der rezeptorgebundenen ^3H-Aktivität im Überstand.
Aus der Messung in Konzentrationsreihen wurden die IC50 für die Referenzsubstanz und für die zu testende Verbindung ermittelt und als Quotient beider Werte (x 100 %) die relative molare Bindungsaffinität bestimmt. Nach einer Inkubationsdauer von 18 Stunden bei 0-4 °C erfolgte die Trennung von gebundenen und freiem Steroid durch Einmischen von Aktivkohle/Dextran / 1%/0,1 %), abzentrifugieren und Messung der gebundenen ^3H-Aktivität im Überstand. Aus der Messung in Konzentrationsreihen wurden die IC50 für die zu testende Substanz und für die Referenzverbindung ermittelt und als Quotient beider Werte (x 100 %) die relative molare Bindungsaffinität bestimmt.

Glucocorticoidrezeptor = molecular target: T2, Glucocorticoidrezeptor (Rattus norvegicus, UniProt P06536); test: Receptor binding affinity, competitive binding with 3H-Dexamethason in thymus cytosol; parameters: species or system Ratte; conditions: thymus cytosol of adrenalectomised rat; tracer 3H-Dexamethason 20nM; 18 h at 0-4°C; quotient of IC50 values x 100 %
T2 construct: Rezeptoren im Cytosol aus tierischen Target-Organen; from tissue; host or cells: thymus cytosol of adrenalectomised rat
T2 sequence (P06536 1-795): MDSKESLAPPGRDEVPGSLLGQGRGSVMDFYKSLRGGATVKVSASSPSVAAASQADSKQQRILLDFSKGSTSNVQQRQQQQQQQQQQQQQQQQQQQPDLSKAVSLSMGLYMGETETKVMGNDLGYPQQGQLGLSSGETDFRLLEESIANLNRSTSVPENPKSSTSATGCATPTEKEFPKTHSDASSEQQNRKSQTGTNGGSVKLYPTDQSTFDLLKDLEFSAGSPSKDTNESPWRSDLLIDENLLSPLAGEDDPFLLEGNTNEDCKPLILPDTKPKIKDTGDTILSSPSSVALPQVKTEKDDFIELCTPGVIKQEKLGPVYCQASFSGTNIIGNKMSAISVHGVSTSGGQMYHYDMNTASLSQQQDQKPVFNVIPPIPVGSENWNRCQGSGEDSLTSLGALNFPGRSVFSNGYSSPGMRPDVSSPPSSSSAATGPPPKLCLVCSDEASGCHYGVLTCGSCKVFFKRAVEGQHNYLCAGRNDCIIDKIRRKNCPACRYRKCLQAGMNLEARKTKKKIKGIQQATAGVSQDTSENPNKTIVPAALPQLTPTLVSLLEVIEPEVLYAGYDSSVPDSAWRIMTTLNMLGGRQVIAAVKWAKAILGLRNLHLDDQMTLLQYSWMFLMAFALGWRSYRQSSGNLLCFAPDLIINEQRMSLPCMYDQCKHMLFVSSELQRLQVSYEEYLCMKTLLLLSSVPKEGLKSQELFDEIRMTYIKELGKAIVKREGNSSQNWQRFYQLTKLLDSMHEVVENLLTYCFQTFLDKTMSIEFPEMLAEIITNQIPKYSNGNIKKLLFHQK
Protocol: as §1, with “Tracer: ^3H-ORG 2058, 5nM; Referenzsubstanz: Progesteron. • Glucocorticoid-Rezeptor: Thymus-Cytosol der adrenalectomierten Ratte.” left out
as §2
Nach einer Inkubationsdauer von 18 Stunden bei 0-4 °C erfolgte die Trennung von gebundenen und freiem Steroid durch Einmischen von Aktivkohle/Dextran / 1%/0,1 %), abzentrifugieren und Messung der gebundenen ^3H-Aktivität im Überstand.

[1] = test system: frühe Gravidität bei der Ratte; test: Inhibition of early pregnancy in the rat (early abortive effect, subcutaneous); format: in vivo; conditions: day 5-7 of pregnancy, empty uteri; for komplette Graviditätshemmung N#/N: N# non-pregnant females / N mated females
Protocol: Rattenweibchen wurde im Stadium Prooestrus angepaart. Bei Nachweis von Spermien im Vaginalbereich am nächsten Tag wird dieser als Tag 1 (d =1) der Gravidität gesetzt. Die Behandlung der Ratten mit Testsubstanz oder Vehikel erfolgt mit 0,2 ml Benzoylbenzoat /Rizinusöl (1+4 v/v) subcutan vom Tag 5 bis Tag 7 (d5 -d7), die Autopsie erfolgt am Tag d 9. Die Rate von vollständig gehemmten Graviditäten in den einzelnen Gruppen ergibt sich aus Tabelle 2. So wurde für die Beispiele 1 (J 1102), 3 (J 1116), 8 (J 1204) und 9 (J 1120) eine um den Faktor 10 überlegene Nidationshemmung gegenüber RU 486 (Mifepriston) ermittelt.

| Structure (SMILES) | relative molare Bindungs-affinität RBA (%) zum Progesteronrezeptor Progesteron = 100 % (Progesteronrezeptor) [%] | relative molare Bindungs-affinität RBA (%) zum Glucocorticoidrezeptor Dexamethason = 100 % (Glucocorticoidrezeptor) [%] | komplette Graviditätshemmung N#/N ([1]; 0,3 mg/Tier/Tag s.c.) | komplette Graviditätshemmung % ([1]; 0,3 mg/Tier/Tag s.c.) [%] | komplette Graviditätshemmung N#/N ([1]; 1 mg/Tier/Tag s.c.) | komplette Graviditätshemmung % ([1]; 1 mg/Tier/Tag s.c.) [%] | komplette Graviditätshemmung N#/N ([1]; 3 mg/Tier/Tag s.c.) | komplette Graviditätshemmung % ([1]; 3 mg/Tier/Tag s.c.) [%] |
| --- | --- | --- | --- | --- | --- | --- | --- | --- |
| COC[C@]1(OC)CC[C@H]2[C@@H]3CCC4=CC(=O)CC[C@]45O[C@]35[C@@H](c3ccc(/C=N/O)cc3)C[C@@]21C [1 ( J 1102)] | 88 | 12 | – | – | – | – | – | – |
| COC[C@]1(OC)CC[C@H]2[C@@H]3CCC4=CC(=O)CC[C@]45O[C@]35[C@@H](c3ccc(/C=N\O)cc3)C[C@@]21C [2 ( J 1160)] | 49 | 18 | – | – | – | – | – | – |
| COC[C@]1(O)CC[C@H]2[C@@H]3CCC4=CC(=O)CC[C@]45O[C@]35[C@@H](c3ccc(/C=N/O)cc3)C[C@@]21C [3 ( J 1116)] | 47 | 12 | – | – | – | – | – | – |
| COC[C@]1(O)CC[C@H]2[C@@H]3CCC4=CC(=O)CC[C@]45O[C@]35[C@@H](c3ccc(/C=N\O)cc3)C[C@@]21C [4 ( J 1182)] | 29 | – | – | – | – | – | – | – |
| COC[C@]1(OC)CC[C@H]2[C@@H]3CCC4=CC(=O)CC[C@]45O[C@]35[C@@H](c3ccc(/C=N/OC(C)=O)cc3)C[C@@]21C [5 ( J 1130)] | 59 | 15 | – | – | – | – | – | – |
| COC[C@]1(O)CC[C@H]2[C@@H]3CCC4=CC(=O)CC[C@]45O[C@]35[C@@H](c3ccc(/C=N/OC(C)=O)cc3)C[C@@]21C [6 ( J 1180)] | 31 | 8 | – | – | – | – | – | – |
| CCOC(=O)O/N=C/c1ccc([C@H]2C[C@@]3(C)[C@@H](CC[C@]3(COC)OC)[C@@H]3CCC4=CC(=O)CC[C@]45O[C@]235)cc1 [9 ( J 1120)] | 63 | 15 | – | – | – | – | – | – |
| CCNC(=O)O/N=C/c1ccc([C@H]2C[C@@]3(C)[C@@H](CC[C@@]3(O)COC)[C@@H]3CCC4=CC(=O)CC[C@]45O[C@]235)cc1 [16 ( J 1186)] | 64 | 13 | – | – | – | – | – | – |
| CCNC(=O)O/N=C/c1ccc([C@H]2C[C@@]3(C)[C@@H](CC[C@]3(COC)OC)[C@@H]3CCC4=CC(=O)CC[C@]45O[C@]235)cc1 [17 ( J 1131)] | 68 | 30 | – | – | – | – | – | – |
| COC[C@]1(OC)CC[C@H]2[C@@H]3CCC4=CC(=O)CCC4=C3[C@@H](c3ccc(/C=N/O)cc3)C[C@@]21C [J 867] | 302 | 77 | 0/5 | 0 | 5/5 | 100 | 5/5 | 100 |
| CC#C[C@]1(O)CC[C@H]2[C@@H]3CCC4=CC(=O)CCC4=C3[C@@H](c3ccc(N(C)C)cc3)C[C@@]21C [RU 486, Mifepriston] | – | 685 | 0/5 | 0 | 1/5 | 20 | 5/5 | 100 |
| CN(C)c1ccc([C@H]2C[C@]3(C)[C@@H](CC[C@]3(O)CCCO)[C@@H]3CCC4=CC(=O)CCC4=C32)cc1 [ZK 98299, Onapriston] | 22 | 39 | – | – | – | – | – | – |
